In patent publication US7786141B2 (Vertex Pharmaceuticals Incorporated, priority 2004, dated 2010):
Like-named read-outs stand apart in the source and are kept apart here.

How the values were obtained:
M1 muscarinic receptor = target: T1, M1 muscarinic receptor (Homo sapiens, UniProt P11229); experiment: Functional mobilization of intracellular calcium (FLIPR) in M1-CHO cells; format: cell-based
T1 construct: expressed in transfected cells; host or cells: CHO (M1-CHO)
T1 sequence (P11229 1-460): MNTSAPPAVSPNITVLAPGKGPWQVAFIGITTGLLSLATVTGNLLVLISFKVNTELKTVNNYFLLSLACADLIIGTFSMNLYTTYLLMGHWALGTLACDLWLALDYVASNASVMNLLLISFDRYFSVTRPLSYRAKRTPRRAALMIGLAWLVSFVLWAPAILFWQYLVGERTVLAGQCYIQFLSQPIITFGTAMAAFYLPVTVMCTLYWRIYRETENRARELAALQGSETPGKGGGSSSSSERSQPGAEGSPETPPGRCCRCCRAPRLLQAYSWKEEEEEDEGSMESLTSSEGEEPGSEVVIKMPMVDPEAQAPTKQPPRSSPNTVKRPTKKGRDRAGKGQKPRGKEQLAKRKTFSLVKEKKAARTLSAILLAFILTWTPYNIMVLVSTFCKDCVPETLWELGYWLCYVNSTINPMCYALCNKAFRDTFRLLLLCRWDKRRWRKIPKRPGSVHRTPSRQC
How it was run: (§1)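 Measured via Fluo-3 fluorescence on a FLIPR, CHO cells with either muscarinic subtype received compound in 0.5% DMSO. Antagonism was assessed after 15 min pre-incubation followed by carbachol at each subtype's EC80; agonism from compound addition alone.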

M4 muscarinic receptor = target: T2, M4 muscarinic receptor (Homo sapiens, UniProt P08173); experiment: Functional mobilization of intracellular calcium (FLIPR) in M4-CHO cells; format: cell-based
T2 construct: expressed in transfected cells; host or cells: CHO (M4-CHO)
T2 sequence (P08173 1-479): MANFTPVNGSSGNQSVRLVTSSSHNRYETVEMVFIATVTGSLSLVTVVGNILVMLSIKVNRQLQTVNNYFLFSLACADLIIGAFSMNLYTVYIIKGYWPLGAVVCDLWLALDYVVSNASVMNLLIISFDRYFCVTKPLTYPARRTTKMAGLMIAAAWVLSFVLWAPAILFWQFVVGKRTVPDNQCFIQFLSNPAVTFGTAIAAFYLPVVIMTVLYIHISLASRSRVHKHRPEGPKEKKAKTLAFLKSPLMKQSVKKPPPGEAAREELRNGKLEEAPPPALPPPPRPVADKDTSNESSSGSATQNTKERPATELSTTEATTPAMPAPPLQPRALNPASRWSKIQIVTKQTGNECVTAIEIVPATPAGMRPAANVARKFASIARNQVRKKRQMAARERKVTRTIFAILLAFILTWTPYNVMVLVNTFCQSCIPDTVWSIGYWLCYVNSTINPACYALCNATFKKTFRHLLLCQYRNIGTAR
How it was run: as §1

[1] = M1 receptor, calcium mobilization
[2] = M1 receptor, calcium mobilization, read-out: M1 Efficacy
[3] = M4 receptor, calcium mobilization
[4] = M4 receptor, calcium mobilization, read-out: M4 Efficacy
[5] = Table 4, 100% efficacy is the maximum response obtained with the Carbachol control
[6] = Table 4, M1 receptor, calcium mobilization (FLIPR)
[7] = Table 4, M4 receptor, calcium mobilization (FLIPR)
[8] = Table 4, modulating M1 receptor
[9] = Table 4, modulating M4 receptor

| SMILES | M1 Activity (M1 muscarinic receptor; [1]) | Emax (M1 muscarinic receptor; [2]) [%] | M4 Activity (M4 muscarinic receptor; [3]) | Emax (M4 muscarinic receptor; [4]) [%] | Emax (M1 muscarinic receptor; [5]) [%] | M1 Activity (M1 muscarinic receptor; [6]) | Emax (M4 muscarinic receptor; [5]) [%] | M4 Activity (M4 muscarinic receptor; [7]) | M1 Activity (M1 muscarinic receptor; [8]) | M4 Activity (M4 muscarinic receptor; [9]) |
| --- | --- | --- | --- | --- | --- | --- | --- | --- | --- | --- |
| CCOC(=O)N1CCC(N2CCC3(CC2)CN(C(=O)C(C)C)c2ccc(F)cc23)CC1 [compound 142] | xxx (activity was measured to be less than 0.1 μM) | 65 to 85 | x (activity was measured to be greater than 1.0 μM) | > 85 | – | – | – | – | – | – |
| CN(C)C(=O)NC1CCC2(CCN(CC3CC4C=CC3C4)CC2)c2ccccc21 (centres unmarked) [compound 998] | – | – | – | – | < 25 | x (activity was measured to be greater than 5.0 μM) | 25 to 100 | xxx (activity was measured to be less than 2.0 μM) | – | – |
| CCOC(=O)N1C2CCC1CC(N1CCC3(CC1)CN(C(=O)c1cc(C)n(C)n1)c1ccc(F)cc13)C2 (centres unmarked) [compound 50] | xxx (activity was measured to be less than 0.1 μM) | > 85 | xx (activity was measured to be between 0.1 μM and 1.0 μM) | > 85 | – | – | – | – | – | – |
| CC(=O)N1CC2(CCN(C3CCN(C(=O)O[C@H]4CCOC4)CC3)CC2)c2ccccc21 [compound 824] | – | – | – | – | 25 to 100 | x (activity was measured to be greater than 5.0 μM) | < 25 | x (activity was measured to be greater than 5.0 μM) | – | – |
| CCOC(=O)N1CCC(N2CCC3(CC2)CN(C(=O)N2CCOCC2)c2ccc(F)cc23)CC1 [compound 290] | xxx (activity was measured to be less than 0.1 μM) | < 65 | x (activity was measured to be greater than 1.0 μM) | < 65 | – | – | – | – | – | – |
| CCOC(=O)N1CCC(N2CCC3(CC2)CN(C(=O)c2ccno2)c2ccc(F)cc23)CC1 [compound 321] | xx (activity was measured to be between 0.1 μM and 1.0 μM) | 65 to 85 | x (activity was measured to be greater than 1.0 μM) | 65 to 85 | – | – | – | – | – | – |
| COc1cccc(N2CCC(N3CCC4(CC3)CN(C(=O)N(C)C)c3ccc(F)cc34)CC2)c1 [compound 735] | – | – | – | – | 25 to 100 | – | 25 to 100 | – | xx (activity was measured to be between 2.0 μM and 5.0 μM) | xxx (activity was measured to be less than 2.0 μM) |
| CC(=O)N[C@H]1CC2(CCN(C3CCN(C)CC3C)CC2)c2ccccc21 (some centres unmarked) [compound 436] | – | – | – | – | < 25 | – | < 25 | – | x (activity was measured to be greater than 5.0 μM) | x (activity was measured to be greater than 5.0 μM) |
| COCC(=O)N1CCC(N2CCC3(CC2)CN(C(=O)N(C)C)c2ccc(F)cc23)CC1 [compound 674] | – | – | – | – | 25 to 100 | – | 25 to 100 | – | x (activity was measured to be greater than 5.0 μM) | x (activity was measured to be greater than 5.0 μM) |
| CCOC(=O)N1C2CCC1CC(N1CCC3(CC1)CN(C(=O)c1cc(C)nn1C(C)(C)C)c1ccc(F)cc13)C2 (centres unmarked) [compound 189] | xxx (activity was measured to be less than 0.1 μM) | 65 to 85 | x (activity was measured to be greater than 1.0 μM) | 65 to 85 | – | – | – | – | – | – |
| O=C(O)C1CC2(CCN(C3CC4CCC3C4)CC2)c2ccccc21 (centres unmarked) [compound 904] | – | – | – | – | < 25 | x (activity was measured to be greater than 5.0 μM) | < 25 | x (activity was measured to be greater than 5.0 μM) | – | – |
| O=C1CC2(CCN(CC3CCCCC3)C2)c2ccc(F)cc21 (centres unmarked) [compound 846] | – | – | – | – | < 25 | xx (activity was measured to be between 2.0 μM and 5.0 μM) | < 25 | xx (activity was measured to be between 2.0 μM and 5.0 μM) | – | – |
| CCCN1CCC(N2CCC3(CC2)CN(C(C)=O)c2ccc(F)cc23)CC1 [compound 699] | – | – | – | – | < 25 | – | < 25 | – | x (activity was measured to be greater than 5.0 μM) | x (activity was measured to be greater than 5.0 μM) |
| Cc1ccc2c(c1)C(=O)CC21CCN(C2CCCCCC2)CC1 [compound 863] | – | – | – | – | 25 to 100 | x (activity was measured to be greater than 5.0 μM) | 25 to 100 | xx (activity was measured to be between 2.0 μM and 5.0 μM) | – | – |
